For 5 compounds, MIC results are on record in article PMC6511942, “Exploitation of Antibiotic Resistance as a Novel Drug Target: Development of a β-Lactamase-Activated Antibacterial Prodrug” (Journal of Medicinal Chemistry, 2019).

The structures appear in SMILES notation.

The assay relates to CFT073 + pSU18 (pEMP). As to the kind of experiment: microbe, parasite or virus in culture. Format: cell-based, E. coli. The following applies: Escherichia coli, read-out: MIC value CFT073 + pSU18, empty plasmid, no β-lactamase.

Take `CC(=O)OCC1=C(C(=O)O)N2C(=O)[C@@H](NC(=O)Cc3ccc(C)cc3)[C@H]2SC1` [compound 12, (6R,7R)-3-(Acetoxymethyl)-8-oxo-7-(2-(p-tolyl)acetamido)-5-thia-1-azabicyclo[4.2.0]oct-2-ene-2-carboxylic Acid]: the MIC amounted to 100 µM.
As for `CC(=O)OCC1=C(C(=O)O)N2C(=O)[C@@H](NC(=O)Cc3ccc(F)cc3)[C@H]2SC1` [compound 13, (6R,7R)-3-(Acetoxymethyl)-7-(2-(4-fluorophenyl)acetamido)-8-oxo-5-thia-1-azabicyclo[4.2.0]oct-2-ene-2-carboxylic Acid], the MIC turned out to be 100 µM.
In the case of `CC(=O)OCC1=C(C(=O)O)N2C(=O)[C@@H](NC(=O)Cc3ccc(Cl)cc3)[C@H]2SC1` [compound 14, (6R,7R)-3-(Acetoxymethyl)-7-(2-(4-chlorophenyl)acetamido)-8-oxo-5-thia-1-azabicyclo[4.2.0]oct-2-ene-2-carboxylic Acid] it was 100 µM; in that of `CC(=O)OCC1=C(C(=O)O)N2C(=O)[C@@H](NC(=O)Cc3ccc(Br)cc3)[C@H]2SC1` [compound 15, (6R,7R)-3-(Acetoxymethyl)-7-(2-(4-bromophenyl)acetamido)-8-oxo-5-thia-1-azabicyclo[4.2.0]oct-2-ene-2-carboxylic Acid], 100 µM.
On to `CCCCCC(=O)N[C@@H]1C(=O)N2C(C(=O)O)=C(COC(C)=O)CS[C@H]12` [compound 28, (6R,7R)-3-(Acetoxymethyl)-7-hexanamido-8-oxo-5-thia-1-azabicyclo[4.2.0]oct-2-ene-2-carboxylic Acid], for which the MIC came out at 100 µM.
